# Laboratory results taken from patent publication US12378250B2, “Tricyclic compound as IRAK4 inhibitor” (KOREA RESEARCH INSTITUTE OF CHEMICAL TECHNOLOGY, priority 2018, dated 2025).
# Columns and labels:
# [1] = test system: TNF-α in serum, LPS-induced systemic inflammatory disease; experiment: Suppressive effects on LPS-induced systemic inflammatory disease in mice (serum TNF-α); type: in vivo, C57BL/6 mice; details: doses of 50 and 100 mg/kg, oral, 2 hours prior to LPS 15 mg/kg i.p.
# Protocol: As experimental animals, 8-week-old C57BL/6 (20 to 23 g) mice were supplied from Orient Bio Co., Ltd. (Seongnam, Gyeonggi-do) and used. The mice were acclimatized for 2 weeks or more in an animal room of the Korea Research Institute of Chemical Technology, where temperature (22±1° C.) and humidity (50±10%) were automatically adjusted, and then used for experiments, and allowed to freely ingest water and feed. This animal experiment was performed with the approval of the Animal Care and Use Committee of the Korea Research Institute of Chemical Technology. A systemic inflammatory disease was induced by administering a dose of 15 mg/kg lipopolysaccharide (LPS, Sigma L2880) intraperitoneally to the mice. A test drug was suspended in a 10% Cremophor solution and administered orally 2 hours prior to LPS injection, the mice were anesthetized with isoflurane 1 hour after LPS administration, and blood was collected from the heart. Serum was obtained by centrifuging the collected blood at 13,000 rpm for 15 minutes, store at −20° C., and then taken if needed to measure the content of cytokine (TNF-α) in serum using an ELISA kit manufactured by BD Biosciences. […]
# IRAK4 enzyme = biological target: T1, IRAK4 enzyme (Homo sapiens, UniProt Q9NWZ3); experiment: IRAK4 enzyme inhibition degree (bead-based kinase assay, peptide substrate BMKC-2, 100 μM ATP); type: biochemical; details: for inhibition at 1 µM: compound 1 μM
# T1 sequence (Q9NWZ3 1-460): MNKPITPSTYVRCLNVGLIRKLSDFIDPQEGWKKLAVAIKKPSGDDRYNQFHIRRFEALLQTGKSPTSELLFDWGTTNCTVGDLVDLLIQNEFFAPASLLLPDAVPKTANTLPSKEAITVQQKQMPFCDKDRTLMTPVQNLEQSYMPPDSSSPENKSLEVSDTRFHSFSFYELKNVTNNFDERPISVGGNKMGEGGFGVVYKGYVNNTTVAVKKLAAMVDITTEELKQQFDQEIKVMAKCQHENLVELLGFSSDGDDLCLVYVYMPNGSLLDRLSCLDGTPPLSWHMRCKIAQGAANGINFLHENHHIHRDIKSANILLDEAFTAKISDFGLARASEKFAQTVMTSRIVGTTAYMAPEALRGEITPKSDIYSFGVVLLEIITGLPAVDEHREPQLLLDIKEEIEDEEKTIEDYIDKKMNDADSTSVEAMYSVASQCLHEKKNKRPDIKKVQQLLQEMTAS
# How it was run: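 IRAK4 (0.4 ng/μl stock) preincubated 10 min with compound, then 6 μM BMKC-2 peptide with 100 μM ATP (mix concentrations) for 60 min at room temperature; EDTA stop. Phospho-Thr antibody with AlphaScreen donor/acceptor beads detected product; % inhibition versus controls, IC50 by non-linear regression.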
# [2] = test system: TNF-α secretion, peripheral blood mononuclear cells (PBMCs); experiment: Suppression of TNF-α secretion in LPS-treated PBMCs (ELISA); type: cell-based; details: PBMC, 100 ng/ml LPS, 24 hours, read-out: TNF-α, % inhibition degree
# Protocol: (§1) Peripheral blood mononuclear cells (PBMCs) isolated from whole blood were distributed in a 96-well plate. TNF-α was aliquoted at a density of 1×10^5 cells/well, IFN-α was aliquoted at a density of 2×10^5 cells/well, and TNF-α and IFN-α were treated with a compound diluted to 4-fold of a final concentration and totally cultured for 30 minutes. TNF-α was treated with 100 ng/ml lipopolysaccharide (LPS), IFN-α was treated with 500 nM ODN2216 (CpGTLR9 stimulator), and TNF-α and IFN-α were further cultured for 24 hours and 72 hours, respectively. An enzyme-linked immunosorbent assay (ELISA) was performed on TNF-α and IFN-α using an ELISA kit manufactured by BD Biosciences and an ELISA kit manufactured by PBL Assay Science, Inc., respectively. A cell supernatant and a standard drug were put into the ELISA plates and reacted for 2 hours. The plates were washed and a measurement antibody and streptavidin-HRP were sequentially added thereto. After the plates were washed, a TMB substrate was added thereto and reacted in a dark place. The reaction was stopped by adding a stop solution thereto, and the absorbance at 450 nm and 570 nm was measured using an absorber (OPTIMax tunable microplate reader, molecular devices). The experimental results are shown in [Table 2].
# [3] = test system: IFN-α secretion, peripheral blood mononuclear cells (PBMCs); experiment: Suppression of IFN-α secretion in ODN2216-treated PBMCs (ELISA); type: cell-based; details: PBMC, 500 nM ODN2216, 72 hours, read-out: IFN-α, % inhibition degree
# Protocol: as §1
# [4] = test system: NF-κB promoter, THP1-Lucia™ NF-κB cell line; experiment: NF-κB promoter inhibition, THP1-Lucia NF-κB cell line; type: cell-based; details: 100 ng/ml LPS, 24 hours, read-out: NF-κB, % inhibition degree
# Protocol: (§2) A THP1-Lucia™ NF-κB cell line (Invivogen) was used in an NF-κB inhibition experiment, and a THP1-Lucia™ ISG cell line was used in an ISG inhibition experiment. In the NF-κB inhibition experiment, cells were planted at a density of 1×10^4 cells/well in a 96-well plate, and in the ISG inhibition experiment, cells were planted at a density of 2×10^4 cells/well in a 96-well plate. The cells were treated with a compound diluted to 4-fold of a final concentration, and totally cultured for 30 minutes. NF-κB was treated with 100 ng/ml lipopolysaccharide (LPS), ISG was treated with a stimulator of 1 μg/ml Poly(dA:dT)/LyoVec, and NF-κB and ISG were cultured for 24 hours. 10 μl of a cell supernatant was taken and transferred to a 96-well plate. 50 μl of a Quanti-luc solution was aliquoted using an automatic aliquoter of a measurer (Envision Multilabel Plate Reader, Perkin Elmer, Inc.), and light emission signals were measured.
# [5] = test system: ISG promoter, THP1-Lucia™ ISG cell line; experiment: ISG promoter inhibition, THP1-Lucia ISG cell line; type: cell-based; details: 1 μg/ml Poly(dA:dT)/LyoVec, 24 hours, read-out: ISG, % inhibition degree
# Protocol: as §2
inhibition at 1 µM (IRAK4 enzyme) [%],IC50 (IRAK4 enzyme) [nM],Compound,suppressive effect on systemic inflammation (serum TNF-α) compared to PF-06650833 [1],inhibition at 0.1 µM [2] [%],inhibition at 1 µM [2] [%],inhibition at 0.1 µM [3] [%],inhibition at 1 µM [3] [%],inhibition at 0.1 µM [4] [%],inhibition at 1 µM [4] [%],inhibition at 0.1 µM [5] [%],inhibition at 1 µM [5] [%]
100,,"COc1cncc(-c2ccc3[nH]c4ncnc(N[C@H]5CC[C@H](N6CCOCC6)CC5)c4c3c2)c1 [Compound 6aad, 6-(5-methoxypyridin-3-yl)-N-(trans-4-morpholinocyclohexyl)-9H-pyrimido[4,5-b]indole-4-amine]",better suppressive effect than PF-06650833,42,105,31,104,33,78,37,79
82,61,"Fc1ccc(-c2ccc3[nH]c4ncnc(N[C@H]5CC[C@H](N6CCOCC6)CC5)c4c3c2)cc1 [Compound 6aan, 6-(4-fluorophenyl)-N-(trans-4-morpholinocyclohexyl)-9H-pyrimido[4,5-b]indole-4-amine]",,9,32,28,71,< 1,28,< 1,6
100,,Cn1cc(-c2ccc3[nH]c4nccc(N[C@H]5CC[C@H](N6CCOCC6)CC5)c4c3c2)cn1 [Compound 17a],,22,75,67,103,31,78,14,93
